Data taken from patent US10633386B2, “BET protein degraders” (THE REGENTS OF THE UNIVERSITY OF MICHIGAN, priority 2016, dated 2020).

System: MDA-MB-231 xenograft
Assay: Efficacy of Cpd. No. 9 in MDA-MB-231 xenograft model
Type: in vivo, SCID mice
Conditions: MDA-MB-231 xenograft model in mice, i.v. (FIG. 7)
Protocol: Cpd. No. 9 was dissolved in 10% PCP [10% PEG400 (Sigma)+3% Cremophor (Sigma)+87% PBS (Gibco)]. The pH of the drug solutions were checked before use and adjusted with 0.5N NaOH to be between pH 6.5 and 8.0 for IV (intravenous) administration.
Human breast tumor cells, MDA-MB-231 (ATCC®) were maintained at 37° C., 95% air, 5% carbon dioxide in Improved MEM (Richter's Mod.) supplemented with 10% Fetal Bovine Serum, 100 units/ml of penicillin and […] (GIBCO™, Invitrogen Corp.) and passaged twice weekly.
Tumor cells for xenografts were harvested with Trypsin (0.05%)-EDTA (0.53 mM) (GIBCO™, Invitrogen Corp.), growth medium added and cells placed on ice. Cells were washed once with 1×PBS (GIBCO™, Invitrogen Corp.) and re-suspended in PBS. After washing in PBS, cells were re-suspended in an ice cold mixture of 1:1 PBS and Matrigel (BD Biosciences, Invitrogen Corp.) for a final Matrigel protein concentration of 5 mg/ml. Cells at 5×10^6 cells in 0.1 ml were injected subcutaneously (s.c.) into the flank region of each mouse using a 25 gauge needle. […]
The size of tumors growing in the mice was measured in two dimensions using calipers. […] During treatment, tumor volume and body weight were measured three times a week. After the treatment was stopped, tumor volume and body weight was measured at least once a week. […]

CCn1nc(C2CC2)cc1Nc1nc(C(=O)NCCCCNc2cccc3c2C(=O)N(C2CCC(=O)NC2=O)C3=O)nc2[nH]c3cc(-c4c(C)noc4C)c(OC)cc3c12 (stereo not shown) [Cpd. No. 9] was tested, and the tumor growth was “reduces tumor growth”.
